Assays:
[1] = tested on: inflammation-related genes; assay: mRNA levels of inflammatory cytokine genes in liver tissue (Example 3.3); type: in vivo, mice; conditions: β-lapachone with DDC in diet, 7 days
Method: (§1) After 8-week-old C57BL/6 male mice (Samtako, Korea) were divided into each group (=6), the mice were fed a diet with normal (vehicle), control (DDC), DDC+β-lapachone 20 mg/kg, DDC+β-lapachone 40 mg/kg, DDC+β-lapachone 80 mg/kg, DDC+β-lapachone 100 mg/kg, and positive control DDC+ursodeoxycholic acid 100 mg/kg, and DDC+obeticholic acid 30 mg/kg (total 7 days). After 7 days of treatment, the mice were sacrificed and then the blood was collected from the heart. Thereafter, the levels of alanine aminotransferase (ALT), aspartate aminotransferase (AST), alkaline phosphatase (ALP), and bilirubin, which are blood indexes, were analyzed, and shown in FIG. 4.
In the cholestatic liver disease, the inflammation in the portal vein and damage to the bile ducts in the liver occur chronically, resulting in cholestasis and liver fibrosis. The mRNA levels of inflammatory cytokine genes in the liver tissue of the cholestatic liver disease mouse animal models obtained by the same method as in Example 3.1 were measured, and shown in FIG. 6.

[2] = tested on: DDC-induced cholestatic liver disease mice; assay: Treatment effect on blood bilirubin and ALP in cholestatic liver disease-induced mice (Example 4); type: in vivo
Method: The treatment effect of β-lapachone in cholestatic liver disease-induced mouse animals were investigated. After 8-week-old C57BL/6 male mice (Samtako, Korea) were divided into each group (=6), each group excluding a control group was fed a diet containing 0.1% DDC for 3 days. Thereafter, the mice were fed a diet with DDC control (vehicle), DDC+β-lapachone 20 mg/kg, DDC+β-lapachone 40 mg/kg, DDC+β-lapachone 80 mg/kg, and positive control DDC+obeticholic acid 30 mg/kg for 4 days (total 7 days). After 7 days of feeding, the mice were sacrificed and then the blood was collected from the heart.

[3] = tested on: DSS-induced inflammatory bowel disease mice; assay: Survival rate, body weight and colitis score in DSS-induced acute colitis mice (Example 6.1); type: in vivo; conditions: for mice died: 14th day of the experiment (DSS alone 70%)
Method: Dextran sodium sulfate (DSS)-induced acute colitis mouse models were constructed using 8-week-old C57BL/6 female mice (Samtako, Korea).
After 8-week-old C57BL/6 female mice (Samtako, Korea) were divided into each group (=10), each experimental group was fed a standard rodent diet supplemented with 3% (w/w) DSS in drinking water for the first 5 days to induce acute colitis and orally administered control (vehicle), β-lapachone 40 mg/kg, and β-lapachone 80 mg/kg for 14 days.
All animal-related procedures were discussed and approved by the Institutional Animal Care and Use Committee of the Hanyang University. The survival rate over time is shown in FIG. 9, and the change rate in body weight of mice in each experimental group was measured and shown in FIG. 10A. The fecal occult bleeding per rectum, total bleeding loss, and fecal concentration were measured daily.

[4] = tested on: Poly I:C-induced cholestatic liver disease animal models; assay: Blood AST, ALT, ALP in Poly I:C-induced primary biliary cirrhosis mice (Example 5); type: in vivo
Method: Of cholestatic liver diseases, primary biliary cirrhosis (PBC) may be introduced to a similar state by using a viral RNA mimic and the Toll-like receptor polyinosinic-polycytidylic acid (Poly I:C). After 8-week-old C57BL/6 male mice (Samtako, Korea) were divided into each group (=6), each experimental group excluding a normal group was intraperitoneally administered 5 mg/kg Poly I:C twice a week for 8 weeks. Thereafter, the mice were fed a diet with control (vehicle), β-lapachone 40 mg/kg, β-lapachone 80 mg/kg, and positive control ursodeoxycholic acid 100 mg/kg and obeticholic acid 30 mg/kg for 8 weeks. On the 16th week of treatment, the experiment was ended, and the mice were sacrificed and then the blood was collected from the heart.

[5] = tested on: DDC-induced cholestatic liver disease mice; assay: H&E histology of portal vein and bile duct lesions, preventive β-lapachone in DDC-induced cholestatic liver disease mice; type: in vivo
Method: DDC-induced cholestatic liver disease mouse animal models were prepared according to the method of Elisa Pose et al. by using 8-week-old C57BL/6 male mice (Samtako, Korea). Briefly, cholestatic liver disease was induced by feeding a standard rodent diet supplemented with 0.1% (w/w) DDC for 7 or 14 days. The 12-hour light and dark cycle was maintained and animals were allowed to free access to water. The standard rodent diet included medium wheat, wheat, corn, and corn gluten flour, and soybean oil (14% protein). All animal related procedures were reviewed and approved by the Institutional Animal Care and Use Committee of Korea Research Institute of Bioscience and Biotechnology (KRIBB), KRIBB-AEC-20165). The tissue staining of the cholestatic liver disease animal models was measured through H&E staining (basic tissue staining), Sirius Red staining (collagen staining), and Masson's trichrome staining (collagen, cytoplasm, muscle fibers, etc.), and the tissue staining was measured by a skilled researcher. After the mice were fed a diet containing 0.1% DDC for 14 days, tissue staining was performed for inflammation, fibrosis, and adhesion molecules around the portal vein, and the results are shown in FIG. 1. […]

[6] = tested on: DDC-induced cholestatic liver disease mice; assay: Blood indexes (ALT, AST, ALP, bilirubin), DDC and β-lapachone given together for 7 days (Example 3.1); type: in vivo
Method: DDC-induced cholestatic liver disease mouse animal models were prepared according to the method of Elisa Pose et al. by using 8-week-old C57BL/6 male mice (Samtako, Korea). Briefly, cholestatic liver disease was induced by feeding a standard rodent diet supplemented with 0.1% (w/w) DDC for 7 or 14 days. The 12-hour light and dark cycle was maintained and animals were allowed to free access to water. The standard rodent diet included medium wheat, wheat, corn, and corn gluten flour, and soybean oil (14% protein). All animal related procedures were reviewed and approved by the Institutional Animal Care and Use Committee of Korea Research Institute of Bioscience and Biotechnology (KRIBB), KRIBB-AEC-20165).
To investigate the effect of β-lapachone (BL) on the occurrence of cholestatic liver disease, both […] and β-lapachone were administered to mice to characterize animal models.
as §1

[7] = 0.1% DDC 3 days, then DDC + 20, 40, 80 mg/kg in diet for 4 days, depending on the concentration
[8] = β-lapachone 40, 80 mg/kg in diet for 8 weeks after 8 weeks Poly I:C
[9] = 20, 40, 80, 100 mg/kg in diet with DDC, depending on the concentration

CC1(C)CCC2=C(O1)c1ccccc1C(=O)C2=O [β-lapachone]
transcriptional level of IL-1β in liver [1]: inhibited
transcriptional level of TNFα in liver [1]: inhibited
ALP in the blood increased by DDC [2, 7]: inhibited
bilirubin in the blood increased by DDC [2, 7]: inhibited
effect on bilirubin and ALP compared with positive controls ([2]; treatment after 3 days DDC, positive control obeticholic acid 30 mg/kg): excellent effect compared with ursodeoxycholic acid (UDCA) and obeticholic acid (OCA)
mice died ([3]; 40 mg/kg orally for 14 days): 50%
body weight recovered, relative to initial body weight ([3]; 80 mg/kg orally (DSS alone reduced to 75% on Day 8)): up to 90%
mice died ([3]; 80 mg/kg orally for 14 days): 20%
colitis score ([3]; 40 and 80 mg/kg orally, 14 days): reduced depending on the treatment concentration
body weight reduction by DSS ([3]; groups treated with β-lapachone 40 and 80 mg/kg orally): inhibited
effect on AST, ALT, ALP compared with comparative substances ([4]; vs ursodeoxycholic acid 100 mg/kg and obeticholic acid 30 mg/kg, 8 weeks): excellent effect compared with the comparative substances ursodeoxycholic acid (UDCA) and obeticholic acid (OCA)
ALP in the blood increased by Poly I:C [4, 8]: inhibited
ALT in the blood increased by Poly I:C [4, 8]: inhibited
AST in the blood increased by Poly I:C [4, 8]: inhibited
concentration dependence of lesion reduction of portal vein and bile ducts (H&E) ([5]; 80 mg/kg (BL80) compared with 40 mg/kg (BL40)): reduced the lesions of the DDC-treated portal vein and bile ducts depending on the concentration thereof
lesions around the portal vein (PV) and bile ducts (H&E) ([5]; DDC-BL40 and DDC-BL80 (40 and 80 mg/kg in diet from 3 days before DDC, total 17 days; DDC 14 days) vs DDC-vehicle): significant lesion reductions
ALP in the blood increased by DDC [6, 9]: inhibited
ALT in the blood increased by DDC [6, 9]: inhibited
AST in the blood increased by DDC [6, 9]: inhibited
bilirubin in the blood increased by DDC [6, 9]: inhibited
effect on blood indexes compared with positive controls ([6]; vs ursodeoxycholic acid 100 mg/kg and obeticholic acid 30 mg/kg): excellent effects compared with ursodeoxycholic acid (UDCA) and obeticholic acid (OCA)

— US20240115545A1, “PHARMACEUTICAL COMPOSITION CONTAINING B-LAPACHONE AS ACTIVE INGREDIENT FOR PREVENTION OR TREATMENT OF CHOLESTATIC LIVER DISEASE” (CUROME BIOSCIENCES CO., LTD., priority 2020, published 2024)
